Source: patent US4988703A, “Carbocyclic nucleoside analogs with antiviral activity” (Abbott Laboratories, priority 1989, dated 1991)
In brackets after ≈: the same amount, converted by molar mass. Like-named read-outs stand apart in the source and are kept apart here.

Legend:
[1] = tested on: Herpes simplex type 1 (HSV-1) strain E-377
[2] = tested on: Herpes simplex type 2 (HSV-2) strain MS
[3] = tested on: African green monkey kidney (Vero); test: Drug cytotoxicity in Vero host cells (cytotoxicity controls of the CPE-inhibition assay); conditions: Vero, HSV-2 (MS) experiment
Description: (§1) The challenge viruses were propagated and assayed in cells that were pregrown as monolayer cultures in plastic tissue culture flasks and 96-well plates, using cell culture media appropriate for the host cell cultures. The following viruses and host cell cultures were employed:
(§2) On the day of use, a weighed sample of each compound to be evaluated was dissolved and diluted in serial 10^0.5 dilutions in the culture medium appropriate for each virus-host cell system.
(§3) Mammalian cells were pregrown as monolayers in wells of COSTAR 96-well tissue culture plates using suitable cell culture media. Stock viruses were pretitered according to the method of Reed and Muench (Amer. J. Hyg. 27:493-497, 1938) and diluted in cell culture medium to yield 32 CCID50 (cell culture infectious dose, 50%) units per 0.1 ml. Antiviral assays were designed to test seven concentrations of each compound, from cytotoxic to noncytotoxic levels, in triplicate against each of the challenge viruses in microtiter plate wells containing suitable cell monolayers. To each of the replicate cell cultures were added 0.1 ml of the test drug solution and 0.1 ml of virus suspension. Cell controls containing medium alone, virus controls containing medium and virus, and drug cytotoxicity controls containing medium and each drug concentration were run simultaneously with the test samples assayed in each experiment. […] The cell monolayers were examined microscopically for virus-induced CPE and for drug cytotoxicity.
(§4) Antiviral activity was determined by calculating the degree of inhibition of virus-induced CPE in drug-treated, virus-infected cell cultures by means of a virus rating (VR). The VR is a standard weighted measurement of antiviral activity taking into account both the degree of CPE inhibition and drug cytotoxicity, and is determined by a modification of the method of Ehrlich et al. (Ann. N.Y. Acad. Sci. 130 : 5-16, 1965) as described below. CPE was graded for each individual culture in each microtiter plate well according to the following scale:
(§5) ^3 MTC=The minimum drug concentration (ug/ml) causing any cytotoxicity.

[4] = as above; conditions: african green monkey, vero cells
Description: as §1, §2, §3, §4, §5

[5] = tested on: Herpes simplex type 1 (HSV-1) strain E-377; test: microbe, parasite or virus in culture; conditions: Human alphaherpesvirus 1, Vero, read-out: ID50: minimum drug concentration that inhibited the CPE by 50%
[6] = tested on: Herpes simplex type 2 (HSV-2) strain MS; test: microbe, parasite or virus in culture; conditions: Human alphaherpesvirus 2, Vero, read-out: ID50: minimum drug concentration that inhibited the CPE by 50%
[7] = tested on: Human influenza type A (IV-A) strain PR/8/34 (HINI); test: CPE-inhibition assay against human influenza virus type A in MDCK cells; type: cell-based
[8] = in vitro; conditions: dog, mdck
Description: as §1, §2
Mammalian cells were pregrown as monolayers in wells of COSTAR 96-well tissue culture plates using suitable cell culture media. Stock viruses were pretitered according to the method of Reed and Muench (Amer. J. Hyg. 27:493-497, 1938) and diluted in cell culture medium to yield 32 CCID50 (cell culture infectious dose, 50%) units per 0.1 ml. Antiviral assays were designed to test seven concentrations of each compound, from cytotoxic to noncytotoxic levels, in triplicate against each of the challenge viruses in microtiter plate wells containing suitable cell monolayers. To each of the replicate cell cultures were added 0.1 ml of the test drug solution and 0.1 ml of virus suspension. […]
Antiviral activity was determined by calculating the degree of inhibition of virus-induced CPE in drug-treated, virus-infected cell cultures by means of a virus rating (VR). […]

SMILES	TI (Therapeutic Index): minimum cytotoxic drug concentration divided by ID50 ([1]; HSV-1 E-377, Vero)	VR (Virus Rating) ([1]; HSV-1 E-377, Vero, VR 1.0 definite activity, 0.5-0.9 marginal to moderate, <0.5 usually none)	TI (Therapeutic Index): minimum cytotoxic drug concentration divided by ID50 ([2]; HSV-2 MS, Vero)	VR (Virus Rating) ([2]; HSV-2 MS, Vero, VR 1.0 definite activity, 0.5-0.9 marginal to moderate, <0.5 usually none)	MTC: minimum drug concentration causing any cytotoxicity [3] [µg/mL]	MCC [4] [µg/mL]	IC50 [5] [µg/mL]	IC50 [6] [µg/mL]	VR (Virus Rating) [7]	VR (Virus Rating) [1]	MCC [8] [µg/mL]	VR (Virus Rating) [2]
Nc1nc2c(ncn2C2CC2CCO)c(=O)[nH]1 (stereo not drawn) [Example 2E, 9-[2-(2'-hydroxyethyl)cyclopropyl]guanine]	> 10.4	3.7	> 4.1	2.3	> 320	> 320	31.6 (≈ 134 µM)	77.7 (≈ 330 µM)				
Nc1nc2c(ncn2C2CC2C(O)CO)c(=O)[nH]1 (stereo not drawn) [Example 3G]	3.2		2.0		> 320	> 320	101 (≈ 402 µM)	159 (≈ 633 µM)	0.6	1.8	> 320	1.3
